These are literature values, as cited in US12397060B2, “pHLIP®-mediated intracellular delivery of immuno-stimulatory compounds” (University of Rhode Island Board of Trustees, priority 2019, dated 2025).

The data set relates to DCs, macrophages, T cells and endothelial cells sorted from B16 tumors. Particulars: stimulated ex vivo, expression highest in macrophages, followed by DCs.

Consider `Cc1ccc2c(=O)c3cccc(CC(=O)O)c3oc2c1C` [DMXAA, 5,6-Dimethylxanthenone-4-acetic acid], for which the “IFN-β expression upon stimulation” value is “All subsets expressed IFN-β”.
Consider `Nc1ncnc2c1ncn2[C@@H]1O[C@@H]2COP(=O)([S-])O[C@@H]3[C@H](O)[C@@H](COP([O-])(=S)O[C@H]2[C@H]1O)O[C@H]3n1cnc2c(N)ncnc21.[Na+].[Na+]` (some centres unmarked) [ML RR-S2 CDA, Dithio-(Rp, Rp)-2′,3′-CDA sodium salt], for which the “IFN-β expression upon stimulation” value is listed as “All subsets expressed IFN-β”.
